Assay results reported in US20240238787A1, “PLATE ASSAY DEVICE AND METHOD FOR IN SITU IMAGING” (Duke University, priority 2023, published 2024).

Tests used:
[1] = test system: P. aeruginosa PA14 biofilm; assay: antibiotic challenge of biofilm on ziggurat peg lid (modified ASTM E2799-22), OD 600 reading and CFU count after sonication; format: cell-based, Pseudomonas aeruginosa PA14; settings: peg 110, vs no antibiotic; for reduction in CFU on a per area basis: 24 h challenge; for OD600 mean reduction: biofilm recovered in PBS by sonication
Experimental: The applicability lid having pegs 110 with a ziggurat shape was evaluated to the relevant ATSM standard, E2799-22, modified workflow FIG. 6. Specifically, the pegs 110 were inoculated in a 24-well plate with media at step 300 and incubated at step 304. At step 308, the pegs 110 were then challenged with antibiotics and then incubated again at step 312. At step 316, the pegs were washed or rinsed and, at step 320, placed in PBS for imaging. The pegs 110 were sonicated, at step 324, to remove attached biofilm, which was quantified using OD 600 reading, at step 328, and a CFU count, at step 332. Importantly, the lid 100 could be handled in the same fashion as the commercially available peg lid. The pegs 110 were less rigidly attached to the lid 100 than the commercially available peg lid and could be broken off easily for a biofilm growth check, although due to the ring of biofilm at the air-medium interface typical of wild-type PA14, this could also be verified visually. Due to the design, it was also possible to image in situ. With respect to FIGS. 7A-7D, after imaging, OD 600 and CFU counts were performed to verify no loss of function between the lid 100 optimized for imaging and the commercially available peg lid. Specifically, the raw data and mean difference versus no antibiotics are shown for 100 μg/mL tetracycline, 10 μg/mL tetracycline on an OD 600 basis on the MBEC® Assay (FIG. 7A), the modified plate (FIG. 7B), and on a CFU/mm2 for PA14 (FIG. 7C). […] PA14 was grown on pegs in TSB for 24 hours before recovery. Wells were categorized as “inside” (e.g., those on the dash-dot line) or “outside” (e.g., those on the dashed line) according to the layout in FIG. 9B. The mean differences was plotted using bootstrap sampling distributions and 95% confidence interval is indicated by the ends of the vertical error bars using EstimationStats.
Experiments were conducted using Pseudomonas aeruginosa PA14, which constitutively expressed GFP. Cultures were grown over-night in tryptic soy broth (VWR International, USA) at 37° C. and 150 rpm. 10 μL of the overnight culture was used to inoculate 50 mL of fresh TSB. The growth plate (24 well, VWR International, USA) was prepared by dispensing […] of broth per well, adding the peg lid 100, and incubating for 24 h at 37° C. and 100 rpm. […]
Transfers between media and rinse plates were accomplished by lifting the peg lid 100, allowing excess liquid to drip off, and gently placing the lid 100 in the new plate. […] The efficacy of removal from the surface by sonication as not tested, however the resultant OD600 readings for P. aeruginosabetween this and the MBEC® assay were similar […]

[2] = test system: P. aeruginosa PA14 biofilm streamers; assay: in situ confocal laser scanning microscopy of biofilm and biofilm streamers on ziggurat peg after antibiotic challenge; format: cell-based, Pseudomonas aeruginosa PA14; settings: 10 μg/mL
From the text: The intent of this peg 110 is to optimize for in situ confocal imaging. Two imaging techniques were applied to evaluate this. With respect to FIG. 8B, the surface 128i of the distal-most portion 128i of the peg 110 was captured using a tile and z-stack approach. The biomass formed on the edges of the peg 110 and, in the “no antibiotic” samples, could be thick enough to scatter the fluorescent light emission. FIG. 8B illustrates selected 3D tiles of the surface of the surface 128i of the peg 110 with an area of 8.042 mm2. This is known to leave imaging artifacts resembling “holes” in the images observed in FIG. 8B (e.g., “No antibiotic”). Streamers, are often formed in this area. […] With respect to FIGS. 8A and 8C, the surface biomass on the second end 116 analyzed using COMSTAT 2.1 was plotted using EstimationStats. With respect to FIGS. 8D and 8F, the biomass on the second step 128h of the step analyzed using COMSTAT 2.1 was plotted using EstimationStats. […]
Pegs 110, 150, 160, 170, 180, 190 were imaged in PBS with an inverted Zeiss LSM 900 (Zeiss, Germany) using a 488 nm laser for excitation and detection wavelengths of […] (green) for GFP and 590-700 nm (red) for identifying autofluorescence. […] Biomass quantification of antibiotic plate images was performed using Comstat2 v2.1 as an ImageJ plugin. […]

With `CN(C)[C@@H]1C(O)=C(C(N)=O)C(=O)[C@@]2(O)C(O)=C3C(=O)c4c(O)cccc4[C@@](C)(O)[C@H]3C[C@@H]12` [tetracycline] the “reduction in CFU on a per area basis” value ([1]; 10 μg/mL tetracycline) was 0 fold, the OD600 mean reduction ([1]; 10 μg/mL tetracycline) was 0.02 and the “reduction in CFU on a per area basis” value ([1]; 100 μg/mL tetracycline) was 3 fold. For the same compound, the OD600 mean reduction ([1]; 100 μg/mL tetracycline) was 0.03, the “streamer midpoint diameter as % of the no antibiotic streamer” value ([2]; no antibiotic streamer 309.09±10.43 μm) was 12.96% and the “approximate midpoint diameter of biofilm streamer” value ([2]; streamer between surface 128i and step 128h, FIG. 8E) was ~40.05±11.98 μm.
